Series [1] is described as follows: Blood/plasma partitioning (BP ratio). It is filed as in vitro ADME, rats. To be noted: rat whole blood, 37 °C, 4 h. On the procedure:
Appropriate amounts of C1 stock solution at 10 mg/mL were spiked into whole blood to obtain samples (prepared in triplicate) at a final concentration of 1, 5, and 10 and 20 μg/mL (in a final volume of 600 μL), to be incubated at 37 °C for 4 h. Plasma was harvested from blood samples by centrifuging at 8000 rpm for 15 min, and then the concentration of C1 was established using the RP-HPLC method and interpolating the response area into a standard curve prepared with C1 and blank plasma. The BP ratio was calculated by dividing 5 and 10 µg/mL, respectively, by the concentration found in plasma separated from blood samples. The concentration of C1 in blood cells is assumed to be equal to its unbound concentration in plasma.

Series [2] concerns myeloperoxidase (MPO). Details: method as in ref 32, 33 = [32]; doi:10.1016/j.arabjc.2016.12.026; 32. Cabrera Pérez L.C. Gutiérrez Sánchez M. Mendieta Wejebe J.E. Hernández Rodríguez M. Fragoso Vázquez M.J. Salazar J.R. Correa Basurto J. Padilla Martínez I.I. Rosales Hernández M.C. Novel 5-aminosa || [33]; 33. Correa Basurto J. Rosales Hernández M.C. Mendieta Wejebe J.E. Trujillo Ferrara J.G. Padilla Martínez I.I. Ramírez Durán L.A. Alemán González Duhart D. Síntesis de un derivado del ácido 5-aminosali. To be noted: o-dianisidine method; cited from earlier work.

`O=C(/C=C(/Br)C(=O)O)Nc1ccc(O)c(C(=O)O)c1` [Compound C1, 5-{[(2E)-3-bromo-3-carboxyprop-2-enoyl]amino}-2-hydroxybenzoic acid]: the “BP Ratio ± SD” value was determined as 0.54 ± 0.02 in series [1] (5 µg/mL) and 0.40 ± 0.01 in series [1] (10 µg/mL). In series [2], the “inhibition of myeloperoxidase (MPO)” value is “comparable to that of indomethacin”.

These data come from article PMC8617944, “Preclinical Pharmacokinetics and Acute Toxicity in Rats of 5-{[(2E)-3-Bromo-3-carboxyprop-2-enoyl]amino}-2-hydroxybenzoic Acid: A Novel 5-Aminosalicylic Acid Derivative with Potent Anti-Inflammatory Activity” (Molecules, 2021).
